This note sets out measurements from patent US20080009418A1, “Selective Inhibitors” (Alchemia LTD., priority 2004, published 2008).

The target of assay [1] is T1, Human μ-opioid (MOP) (Homo sapiens, UniProt P35372).
T1 construct: purchased Perkin Elmer Biosignal
In words: Radioligand binding, human μ-opioid (MOP) membranes, FlashPlate, [3H]-Naloxone. The conditions noted are these: compound at 10 μM, [3H]-Naloxone. The procedure, abridged:
(§1)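 Cloned human receptor membranes were coated onto FlashPlate wells and incubated with radioligand and compound (added from a 0.5 mM DMSO daughter plate) for 1 hour at room temperature in the dark. Scintillation counting gave percent inhibition, with DMSO defining total and reference ligand defining non-specific binding.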

Assay [2] has as its target T2, Human δ-opioid (DOP) (Homo sapiens, UniProt P41143).
T2 construct: purchased Perkin Elmer Biosignal
The assay is described as follows: Radioligand binding, human δ-opioid (DOP) membranes, FlashPlate, [3H]-Bremazocine. The conditions noted are these: compound at 10 μM; [3H]-Bremazocine. The procedure, abridged: as §1

Assay [3] has as its target T3, Mouse urotensin (mUR2) (Mus musculus, UniProt Q8VIH9).
T3 construct: purchased Perkin Elmer Biosignal
T3 sequence (Q8VIH9 1-385): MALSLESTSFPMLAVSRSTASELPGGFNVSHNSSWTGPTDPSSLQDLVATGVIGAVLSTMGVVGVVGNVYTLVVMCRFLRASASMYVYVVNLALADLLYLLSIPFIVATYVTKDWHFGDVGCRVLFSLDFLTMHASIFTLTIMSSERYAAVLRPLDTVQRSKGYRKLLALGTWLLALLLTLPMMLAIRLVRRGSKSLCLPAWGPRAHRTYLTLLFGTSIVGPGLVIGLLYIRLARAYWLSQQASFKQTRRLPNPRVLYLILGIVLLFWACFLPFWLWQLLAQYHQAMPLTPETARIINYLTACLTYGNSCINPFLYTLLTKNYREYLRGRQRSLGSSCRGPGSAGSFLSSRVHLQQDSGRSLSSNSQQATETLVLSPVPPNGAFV
In words: Radioligand binding, mouse urotensin mUR2 membranes, FlashPlate, [125I]-Urotensin II. As to conditions: compound at 10 μM; [125I]-Urotensin II. In short, it runs like this:
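Cloned mouse urotensin (mUR2) receptor membranes from Perkin Elmer Biosignal were immobilized in FlashPlate microplates using a proprietary coating. Each well got 19.5 μl buffer, then 0.5 μl of DMSO, reference ligand, or compound. Adding 5 μl of [125I]-Urotensin II, diluted to 5× final concentration in binding buffer, started binding. Plates were sealed with TopSeal-A and incubated 1 hour at room temperature in the dark. Wells were counted for 30 seconds each on a TopCount after a 60-second delay, and percentage inhibition was calculated.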

Assay [4] deals with T4, Human Melanocortin (MC4) (Homo sapiens, UniProt P32245).
T4 construct: purchased Perkin Elmer Biosignal
In words: Radioligand binding, human melanocortin MC4 membranes, FlashPlate, [125I]-NDP-αMSH. As to conditions: compound at 10 μM, [125I]-NDP-αMSH. In short, it runs like this:
as §1

Assay [5] concerns the target T5, Human κ-Opioid (KOP) (Homo sapiens, UniProt P41145).
T5 construct: purchased Perkin Elmer Biosignal
The assay is described as follows: Radioligand binding, human κ-opioid (KOP) membranes, filtration, [3H]-Diprenorphine. The conditions noted are these: compound at 10 μM; [3H]-Diprenorphine. The procedure, abridged:
(§2)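 Percent inhibition of radioligand binding measured on recombinant human membranes: NK1 with [125I]-Substance P, KOP with [3H]-Diprenorphine. Incubation 1 h at room temperature, then harvest onto 0.3% PEI-soaked filters, cold Tris-HCl pH 7.4 washes and scintillation counting; non-specific binding from reference ligand wells.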

Assay [6] has as its target T6, Human melanin-concentrating hormone (MCH1) (Homo sapiens, UniProt Q99705).
T6 construct: purchased Perkin Elmer Biosignal
The assay is described as follows: Radioligand binding, human melanin-concentrating hormone MCH1 membranes, FlashPlate, [125I]-S36057. As to conditions: compound at 10 μM, [125I]-S36057. The procedure, abridged: as §1

For assay [7], the target named is T7, Human neuropeptide Y (NPY-Y1) (Homo sapiens, UniProt P25929).
T7 construct: purchased Perkin Elmer Biosignal
T7 sequence (P25929 1-384): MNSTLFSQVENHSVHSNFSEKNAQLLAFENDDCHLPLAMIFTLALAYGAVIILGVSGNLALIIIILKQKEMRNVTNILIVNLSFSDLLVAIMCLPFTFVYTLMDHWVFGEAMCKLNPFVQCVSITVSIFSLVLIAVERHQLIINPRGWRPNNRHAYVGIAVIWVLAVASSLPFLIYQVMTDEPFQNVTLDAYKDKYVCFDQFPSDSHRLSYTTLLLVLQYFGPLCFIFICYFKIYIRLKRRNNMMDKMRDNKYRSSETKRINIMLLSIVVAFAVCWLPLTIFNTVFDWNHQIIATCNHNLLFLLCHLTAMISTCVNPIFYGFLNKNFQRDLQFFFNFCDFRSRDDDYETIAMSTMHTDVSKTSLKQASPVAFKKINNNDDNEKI
The assay is described as follows: Radioligand binding, human neuropeptide Y NPY-Y1 membranes, FlashPlate, [125I]-PYY. As to conditions: compound at 10 μM; [125I]-PYY. The procedure, abridged: as §1

The target in assay [8] is T8, Human melanocortin (MC5) (Homo sapiens, UniProt P33032).
T8 construct: purchased Perkin Elmer Biosignal
In words: Radioligand binding, human melanocortin MC5 membranes, FlashPlate, [125I]-NDP-αMSH. As to conditions: compound at 10 μM; [125I]-NDP-αMSH. The procedure, abridged:
as §1

Assay [9] has as its target T9, Human opioid (ORL1) (Homo sapiens, UniProt P41146).
T9 construct: purchased Perkin Elmer Biosignal
In words: Radioligand binding, human opioid ORL1 membranes, FlashPlate, [125I]-Nociceptin. The conditions noted are these: compound at 10 μM, [125I]-Nociceptin. The procedure, abridged: as §1

Assay [10] addresses T10, Human neurokinin (NK1) (Homo sapiens, UniProt P25103).
T10 construct: purchased Perkin Elmer Biosignal
In words: Radioligand binding, human neurokinin NK1 membranes, filtration, [125I]-Substance P. As to conditions: compound at 10 μM; [125I]-Substance P. In short, it runs like this:
as §2

Assay [11] addresses T11, Human Melanocortin (MC3) (Homo sapiens, UniProt P41968).
T11 construct: purchased Perkin Elmer Biosignal
In words: Radioligand binding, human melanocortin MC3 membranes, FlashPlate, [125I]-NDP-αMSH. As to conditions: compound at 10 μM; [125I]-NDP-αMSH. The procedure, abridged:
as §1

T2 sequence (P41143 whole entry): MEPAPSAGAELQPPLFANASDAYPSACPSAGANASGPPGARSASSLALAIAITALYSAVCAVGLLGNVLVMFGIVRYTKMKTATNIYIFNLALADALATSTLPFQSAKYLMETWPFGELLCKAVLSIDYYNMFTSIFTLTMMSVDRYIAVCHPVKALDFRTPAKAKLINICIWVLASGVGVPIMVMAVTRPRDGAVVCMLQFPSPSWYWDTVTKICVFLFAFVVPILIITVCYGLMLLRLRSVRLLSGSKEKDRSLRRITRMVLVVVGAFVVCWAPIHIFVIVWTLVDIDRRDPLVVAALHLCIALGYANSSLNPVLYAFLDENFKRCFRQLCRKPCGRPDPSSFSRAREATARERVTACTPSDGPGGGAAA
T11 sequence (P41968 whole entry): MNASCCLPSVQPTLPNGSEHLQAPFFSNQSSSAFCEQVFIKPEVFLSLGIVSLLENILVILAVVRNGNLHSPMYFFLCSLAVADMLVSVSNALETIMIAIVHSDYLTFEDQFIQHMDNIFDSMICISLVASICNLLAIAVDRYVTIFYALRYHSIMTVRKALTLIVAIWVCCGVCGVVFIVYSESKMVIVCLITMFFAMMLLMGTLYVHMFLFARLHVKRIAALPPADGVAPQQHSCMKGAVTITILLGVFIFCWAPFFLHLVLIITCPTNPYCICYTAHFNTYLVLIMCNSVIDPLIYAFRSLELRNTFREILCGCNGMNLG
T6 sequence (Q99705 whole entry): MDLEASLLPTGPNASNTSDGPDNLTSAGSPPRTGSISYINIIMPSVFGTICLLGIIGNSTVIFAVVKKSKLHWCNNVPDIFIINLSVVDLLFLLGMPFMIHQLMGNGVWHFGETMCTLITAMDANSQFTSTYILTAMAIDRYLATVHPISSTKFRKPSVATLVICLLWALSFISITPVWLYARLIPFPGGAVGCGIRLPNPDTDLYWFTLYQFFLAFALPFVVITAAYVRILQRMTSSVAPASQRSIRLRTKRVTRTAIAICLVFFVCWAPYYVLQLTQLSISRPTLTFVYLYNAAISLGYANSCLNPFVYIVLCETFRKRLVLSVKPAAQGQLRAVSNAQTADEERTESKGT
T5 sequence (P41145 whole entry): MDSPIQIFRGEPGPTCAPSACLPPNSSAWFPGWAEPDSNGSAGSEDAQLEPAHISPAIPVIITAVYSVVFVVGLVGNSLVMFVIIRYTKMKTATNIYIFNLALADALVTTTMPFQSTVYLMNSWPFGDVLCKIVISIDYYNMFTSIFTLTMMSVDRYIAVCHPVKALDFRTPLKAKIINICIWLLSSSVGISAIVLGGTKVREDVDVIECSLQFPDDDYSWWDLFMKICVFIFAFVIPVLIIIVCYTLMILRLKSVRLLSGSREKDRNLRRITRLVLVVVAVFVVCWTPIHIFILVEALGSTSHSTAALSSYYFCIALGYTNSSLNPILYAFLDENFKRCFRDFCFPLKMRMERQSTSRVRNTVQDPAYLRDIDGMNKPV
T4 sequence (P32245 whole entry): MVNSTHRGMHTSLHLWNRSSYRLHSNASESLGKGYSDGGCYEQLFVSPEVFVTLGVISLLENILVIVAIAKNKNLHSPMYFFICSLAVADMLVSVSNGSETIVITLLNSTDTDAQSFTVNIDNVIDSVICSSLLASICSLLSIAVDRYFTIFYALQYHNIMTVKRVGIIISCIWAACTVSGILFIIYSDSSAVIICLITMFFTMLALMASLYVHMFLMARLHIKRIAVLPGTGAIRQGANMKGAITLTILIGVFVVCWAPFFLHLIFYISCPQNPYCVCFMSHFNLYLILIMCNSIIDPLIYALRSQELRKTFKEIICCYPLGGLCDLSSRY
T1 sequence (P35372 whole entry): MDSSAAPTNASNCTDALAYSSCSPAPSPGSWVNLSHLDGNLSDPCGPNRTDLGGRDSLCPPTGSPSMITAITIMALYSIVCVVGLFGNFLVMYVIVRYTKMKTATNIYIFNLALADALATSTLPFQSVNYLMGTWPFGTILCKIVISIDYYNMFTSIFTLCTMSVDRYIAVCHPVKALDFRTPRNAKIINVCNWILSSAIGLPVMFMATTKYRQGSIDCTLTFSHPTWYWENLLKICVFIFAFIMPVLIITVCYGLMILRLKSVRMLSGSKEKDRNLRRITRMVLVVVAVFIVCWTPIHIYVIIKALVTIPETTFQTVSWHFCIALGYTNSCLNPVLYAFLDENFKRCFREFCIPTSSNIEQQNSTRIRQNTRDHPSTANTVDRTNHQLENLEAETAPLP
T9 sequence (P41146 whole entry): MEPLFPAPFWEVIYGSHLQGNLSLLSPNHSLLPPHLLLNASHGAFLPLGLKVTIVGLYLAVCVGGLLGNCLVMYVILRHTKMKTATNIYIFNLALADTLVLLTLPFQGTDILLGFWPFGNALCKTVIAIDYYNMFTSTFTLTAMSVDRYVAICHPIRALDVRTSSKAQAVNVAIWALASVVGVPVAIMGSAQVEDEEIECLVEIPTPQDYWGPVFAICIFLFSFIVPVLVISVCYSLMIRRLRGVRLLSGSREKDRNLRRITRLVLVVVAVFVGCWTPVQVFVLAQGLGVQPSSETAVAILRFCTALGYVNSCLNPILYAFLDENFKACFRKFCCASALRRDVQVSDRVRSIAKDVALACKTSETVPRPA
T10 sequence (P25103 whole entry): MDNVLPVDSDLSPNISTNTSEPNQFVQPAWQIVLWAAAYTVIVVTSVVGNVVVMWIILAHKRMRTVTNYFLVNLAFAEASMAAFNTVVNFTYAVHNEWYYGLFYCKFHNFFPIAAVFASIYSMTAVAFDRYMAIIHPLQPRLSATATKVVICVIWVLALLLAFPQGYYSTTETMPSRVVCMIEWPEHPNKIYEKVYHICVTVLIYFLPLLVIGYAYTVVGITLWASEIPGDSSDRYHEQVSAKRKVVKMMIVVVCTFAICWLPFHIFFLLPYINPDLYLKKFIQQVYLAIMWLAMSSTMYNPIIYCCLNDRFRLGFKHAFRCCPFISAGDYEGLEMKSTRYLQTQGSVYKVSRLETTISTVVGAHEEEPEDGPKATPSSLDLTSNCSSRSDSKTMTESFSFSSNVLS
T8 sequence (P33032 whole entry): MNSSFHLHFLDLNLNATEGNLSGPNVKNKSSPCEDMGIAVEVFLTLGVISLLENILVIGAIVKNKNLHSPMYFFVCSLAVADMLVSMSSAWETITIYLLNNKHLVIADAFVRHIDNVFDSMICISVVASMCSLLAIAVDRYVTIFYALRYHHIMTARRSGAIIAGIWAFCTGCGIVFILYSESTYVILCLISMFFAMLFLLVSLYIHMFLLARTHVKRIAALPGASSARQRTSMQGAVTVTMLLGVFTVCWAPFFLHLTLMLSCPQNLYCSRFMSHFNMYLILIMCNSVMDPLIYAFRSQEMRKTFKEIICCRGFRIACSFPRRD

`NCCCC(=O)NC1C(OCc2ccc(Cl)cc2)OC(COCc2ccccc2)C(O)C1OCc1ccc2ccccc2c1` (single isomer, unassigned) [compound 497]: the “A7: inhibition of radioligand binding, human μ-opioid (MOP)” value (from here on “A7: inhibition of radioligand binding”) in assay [1] is on record as “− (“−” indicates less than 50% inhibition at 10 μM)”. Further, in [2], the “A1: inhibition of radioligand binding, human δ-opioid (DOP)” value (from here on “A1: inhibition … human δ-opioid (DOP)”) is given as “− (“−” indicates less than 50% inhibition at 10 μM)”. Besides, the “A11: inhibition of radioligand binding, mouse urotensin (mUR2)” value (from here on “A11: inhibition of radioligand binding”) in assay [3] is “− (“−” indicates less than 50% inhibition at 10 μM)”. Also, the “A4: inhibition of radioligand binding, human melanocortin (MC4)” value (shortened to “A4: inhibition of radioligand binding”) in assay [4] (10 µM) is listed as “− (“−” indicates less than 50% inhibition at 10 μM)”. Further, the “A2: inhibition of radioligand binding, human κ-opioid (KOP)” value (shortened to “A2: inhibition of radioligand binding”) in assay [5] was “− (“−” indicates less than 50% inhibition at 10 μM)”. In addition, the “A6: inhibition of radioligand binding, human melanin-concentrating hormone (MCH1)” value (shortened to “A6: inhibition of radioligand binding”) in assay [6] is on record as “− (“−” indicates less than 50% inhibition at 10 μM)”. For the same compound, the “A9: inhibition of radioligand binding, human neuropeptide Y (NPY-Y1)” value (shortened to “A9: inhibition of radioligand binding”) in assay [7] is listed as “− (“−” indicates less than 50% inhibition at 10 μM)”. Further, the “A5: inhibition of radioligand binding, human melanocortin (MC5)” value (“A5: inhibition of radioligand binding” for short) in assay [8] is “+ (“+” indicates greater than 50% inhibition at 10 μM)”. The “A10: inhibition of radioligand binding, human opioid (ORL1)” value (from here on “A10: inhibition of radioligand binding”) in [9] (10 µM) is reported as “− (“−” indicates less than 50% inhibition at 10 μM)”. Also, in assay [10], the “A8: inhibition of radioligand binding, human neurokinin (NK1)” value (“A8: inhibition of radioligand binding” for short) is “+ (“+” indicates greater than 50% inhibition at 10 μM)”. The “A3: inhibition of radioligand binding, human melanocortin (MC3)” value (from here on “A3: inhibition of radioligand binding”) in assay [11] is “− (“−” indicates less than 50% inhibition at 10 μM)”.

As to `NCCCC(=O)NC1C(OCc2ccc(Cl)cc2)OC(COCc2ccccc2)C(O)C1OCc1ccc2ccccc2c1` (single isomer, unassigned) [compound 498], the “A7: inhibition of radioligand binding” value in assay [1] is on record as “− (“−” indicates less than 50% inhibition at 10 μM)”. The “A1: inhibition … human δ-opioid (DOP)” value in assay [2] was “− (“−” indicates less than 50% inhibition at 10 μM)”. For the same compound, in [3], the “A11: inhibition of radioligand binding” value is on record as “− (“−” indicates less than 50% inhibition at 10 μM)”. For the same compound, the “A4: inhibition of radioligand binding” value in [4] (10 µM) is on record as “+ (“+” indicates greater than 50% inhibition at 10 μM)”. In assay [5], the “A2: inhibition of radioligand binding” value is listed as “− (“−” indicates less than 50% inhibition at 10 μM)”. In addition, in [6], the “A6: inhibition of radioligand binding” value is recorded as “− (“−” indicates less than 50% inhibition at 10 μM)”. Besides, in assay [7], the “A9: inhibition of radioligand binding” value is “− (“−” indicates less than 50% inhibition at 10 μM)”. Moreover, the “A5: inhibition of radioligand binding” value in [8] is reported as “+ (“+” indicates greater than 50% inhibition at 10 μM)”. For the same compound, the “A10: inhibition of radioligand binding” value in [9] (10 µM) is reported as “+ (“+” indicates greater than 50% inhibition at 10 μM)”. The “A8: inhibition of radioligand binding” value in [10] is reported as “+ (“+” indicates greater than 50% inhibition at 10 μM)”. In assay [11], the “A3: inhibition of radioligand binding” value is listed as “− (“−” indicates less than 50% inhibition at 10 μM)”.

As to `NCCCC(=O)NC1C(OCc2ccc(Cl)cc2)OC(COCc2ccc(Cl)cc2)C(O)C1OCc1ccc2ccccc2c1` (single isomer, unassigned) [compound 499], the “A7: inhibition of radioligand binding” value in assay [1] (10 µM) was “− (“−” indicates less than 50% inhibition at 10 μM)”. The “A1: inhibition … human δ-opioid (DOP)” value in assay [2] is “− (“−” indicates less than 50% inhibition at 10 μM)”. In [3], the “A11: inhibition of radioligand binding” value is reported as “− (“−” indicates less than 50% inhibition at 10 μM)”. Besides, the “A4: inhibition of radioligand binding” value in assay [4] is “+ (“+” indicates greater than 50% inhibition at 10 μM)”. Moreover, in assay [5], the “A2: inhibition of radioligand binding” value is recorded as “− (“−” indicates less than 50% inhibition at 10 μM)”. The “A6: inhibition of radioligand binding” value in assay [6] (10 µM) is reported as “− (“−” indicates less than 50% inhibition at 10 μM)”. Further, the “A9: inhibition of radioligand binding” value in [7] was “− (“−” indicates less than 50% inhibition at 10 μM)”. Moreover, the “A5: inhibition of radioligand binding” value in [8] was “+ (“+” indicates greater than 50% inhibition at 10 μM)”. Further, in [9], the “A10: inhibition of radioligand binding” value is on record as “+ (“+” indicates greater than 50% inhibition at 10 μM)”. Also, in [10], the “A8: inhibition of radioligand binding” value is on record as “+ (“+” indicates greater than 50% inhibition at 10 μM)”. The “A3: inhibition of radioligand binding” value in assay [11] was “+ (“+” indicates greater than 50% inhibition at 10 μM)”.
